PubChem BioAssay AID1259411 (Chemical Carcinogenesis Research Information System (CCRIS), 2018)
Calls of active or inactive are those of the source. The rule behind the calls is not given here.

Test system: rodent carcinogenicity bioassays, tumor incidence
Experiment: CCRIS carcinogenicity studies
Procedure, shortened: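 NCI-built, expert-reviewed records of carcinogenicity and related test outcomes (mutagenicity, tumor promotion/inhibition) compiled from published and report sources, historical span 1985-2011, not updated.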

Structure (SMILES): Cc1c2ccccc2c(C)c2c1ccc1ccccc12
- carcinogen call (Species: MOUSE, Strain/Sex: SWISS/MALE,FEMALE, Route: SUBCUTANEOUS, Dose: 30-40 UG IN 0.02 ML OF 1% AQ GEL, Tumor Site: Type of Lesion: LUNG, LYMPHATIC SYSTEM: MALIGNANT LYMPHOMA): active; positive
- carcinogen call (Species: RAT, Strain/Sex: ALBINO/MALE,FEMALE, Route: SUBCUTANEOUS, Dose: 5 MG IN 0.5 ML OLIVE OIL ONCE, Tumor Site: Type of Lesion: INJECTION SITE: RHABDOMYOSARCOMA): active; positive
- carcinogen call (Species: RAT, Strain/Sex: BIRMINGHAM/ MALE, FEMALE, Route: DERMAL, Dose: 0.5, 1.6% SOLN IN OLIVE OIL ONCE EVERY 2 WK, Tumor Site: Type of Lesion: INTEGUMENTARY SYSTEM (SKIN): SQUAMOUS PAPILLOMA, KERATOACANTHOMA, SQUAMOUS CELL CARCINOMA, MAMMARY GLAND): active; positive
- carcinogen call (Species: RAT, Strain/Sex: F344/FEMALE, 3 WKS OF AGE, Route: GAVAGE, Dose: 50 MG/KG ONCE (STUDY DURATION: 36 WKS), Tumor Site: Type of Lesion: MAMMARY GLAND: CARCINOMA): 20% tumor incidence; 0.23 carcinomas/rat; immature rats less susceptible
- carcinogen call (Species: RAT, Strain/Sex: F344/FEMALE, 8 WKS OF AGE, Route: GAVAGE, Dose: 50 MG/KG ONCE (STUDY DURATION: 36 WKS), Tumor Site: Type of Lesion: MAMMARY GLAND: CARCINOMA): 69% tumor incidence; 1.27 carcinomas/rat; mature rats more susceptible
- carcinogen call (Species: RAT, Strain/Sex: OUTBRED/ MALE, FEMALE, Route: DERMAL, Dose: 0.5, 1.6% SOLN IN OLIVE OIL ONCE EVERY 2 WK, Tumor Site: Type of Lesion: INTEGUMENTARY SYSTEM (SKIN): SQUAMOUS PAPILLOMA, KERATOACANTHOMA, SQUAMOUS CELL CARCINOMA, MAMMARY GLAND): active; positive
- carcinogen call (Species: RAT, Strain/Sex: SPRAGUE-DAWLEY/FEMALE, Route: GAVAGE, Dose: 10 MG IN 0.5 ML SESAME OIL ONCE, Tumor Site: Type of Lesion: MAMMARY GLAND): active; positive
- carcinogen call (Species: RAT, Strain/Sex: SPRAGUE-DAWLEY/FEMALE, Route: GAVAGE, Dose: 20 MG IN 1 ML SESAME OIL ONCE, Tumor Site: Type of Lesion: MAMMARY GLAND: FIBROADENOMA, CARCINOMA): active; positive
- carcinogen call (Species: RAT, Strain/Sex: SPRAGUE-DAWLEY/FEMALE, Route: INJECTION, Dose: 0, 0.25, 1 UMOL PER MAMMARY GLAND (STUDY DURATION: 24 WK), Dose: 0, 0.25, 1 UMOL PER MAMMARY GLAND (STUDY DURATION: 24 WK), Tumor Site: Type of Lesion: MAMMARY GLAND: TUMOR): active; positive
- carcinogen call (Species: RAT, Strain/Sex: SPRAGUE-DAWLEY/FEMALE, Route: INTRAVENOUS, Dose: 5 MG IN 1 ML LIPID EMULSION ONCE, Tumor Site: Type of Lesion: MAMMARY GLAND): active; positive
- carcinogen call (Species: RAT, Strain/Sex: SPRAGUE-DAWLEY/FEMALE, Route: ORAL, Dose: 10 MG IN SESAME OIL 3 TIMES AT 14 D INTERVALS, Tumor Site: Type of Lesion: MAMMARY GLAND: ADENOMA, ADENOCARCINOMA): active; positive
- carcinogen call (Species: RAT, Strain/Sex: SPRAGUE-DAWLEY/FEMALE, Route: ORAL, Dose: 20 MG IN SESAME OIL ONCE, Tumor Site: Type of Lesion: MAMMARY GLAND: ADENOMA, FIBROADENOMA, CARCINOMA, ADENOCARCINOMA): active; positive
- carcinogen call (Species: RAT, Strain/Sex: SPRAGUE-DAWLEY/FEMALE, Route: SUBCUTANEOUS, Dose: 0, 2 UMOL IN 0.25 ML TRIOCTANOIN INTO LEFT HIND LEG AT ABOUT 40 D OF AGE FOLLOWED BY SECOND DOSE 6 D LATER (STUDY DURATI, Tumor Site: Type of Lesion: INJECTION SITE: SARCOMA): active; positive
- carcinogen call (Species: RAT, Strain/Sex: SPRAGUE-DAWLEY/FEMALE, Route: SUBCUTANEOUS, Dose: 0, 2 UMOL IN 0.25 ML TRIOCTANOIN ONCE INTO LEFT HIND LEG AT ABOUT 40 D OF AGE (STUDY DURATION: 16 MO), Tumor Site: Type of Lesion: INJECTION SITE: SARCOMA): active; positive
- carcinogen call (Species: RAT, Strain/Sex: STRAIN-CB/FEMALE, Route: SUBCUTANEOUS, Dose: 0.25 ML OF 1% SOLN IN DMSO ONCE, Tumor Site: Type of Lesion: INJECTION SITE: SPINDLE CELL SARCOMA): active; positive
- carcinogen call (Species: RAT, Strain/Sex: WISTAR/FEMALE, Route: GAVAGE, Dose: 0.4 ML OF 0.5% SUNFLOWER SEED OIL SOLN 2/WK FOR 4.5 MO (TOTAL DOSE: 68 MG), Tumor Site: Type of Lesion: HEMATOPOIETIC SYSTEM (LEUKEMIA)): active; positive
- carcinogen call (Species: RAT, Strain/Sex: WISTAR/FEMALE, Route: INJECTION, Dose: 0, 0.05 ML OF A 1% SOLUTION IN ACETONE INJECTED INTO SUBMANDIBULAR SALIVARY GLANDS AFTER EXCISION OF A SMALL PORTION OF, Tumor Site: Type of Lesion: SALIVARY GLAND: ADENOCARCINOMA): active; positive
- carcinogen call (Species: RAT, Strain/Sex: WISTAR/FEMALE, Route: INTRADUCTAL, Dose: 0, 1 MG IN 0.05 ML OF SESAME OIL INJECTED INTO MAIN MAMMARY DUCT ON THE 10TH PUERPERAL DAY (STUDY DURATION: 20 WK), Tumor Site: Type of Lesion: MAMMARY GLAND: DUCTAL CARCINOMA): active; positive
- carcinogen call (Species: RAT, Strain/Sex: WISTAR/FEMALE, Route: ORAL, Dose: 10 MG IN SESAME OIL 3 TIMES AT 14 D INTERVALS, Tumor Site: Type of Lesion: MAMMARY GLAND: ADENOMA, ADENOCARCINOMA): active; positive
- carcinogen call (Species: RAT, Strain/Sex: WISTAR/FURTH/FEMALE, Route: OVARIAN IMPLANTATION OF CARCINOGEN-COATED SUTURE AT 7 WKS OF AGE, Dose: 200 UG IN SUTURE ONCE (STUDY DURATION: 1 YR), Tumor Site: Type of Lesion: OVARY: ADENOCARCINOMA, 77%): active; positive
- carcinogen call (Species: RAT, Strain/Sex: WISTAR/MALE, Route: INJECTION, Dose: 0, 0.05 ML OF A 1% SOLUTION IN ACETONE INJECTED INTO SUBMANDIBULAR SALIVARY GLANDS AFTER EXCISION OF A SMALL PORTION OF, Tumor Site: Type of Lesion: SALIVARY GLAND: FIBROSARCOMA): active; positive
- carcinogen call (Species: RAT, Strain/Sex: ZUCKER/FEMALE, LEAN, Route: ORAL (GAVAGE), Dose: 65 MG/KG ONCE AT 50 D OF AGE (STUDY DURATION: 139 D), Tumor Site: Type of Lesion: MAMMARY: TUMOR 32%, LATENCY 86 D): active; positive; lean rats had longer latent period and lower tumor incidence than obes
- carcinogen call (Species: RAT, Strain/Sex: ZUCKER/FEMALE, OBESE, Route: ORAL (GAVAGE), Dose: 65 MG/KG ONCE AT 50 D OF AGE (STUDY DURATION: 139 D), Tumor Site: Type of Lesion: MAMMARY: TUMOR 68%, LATENCY 49 D): active; positive; obese rats had higher tumor incidence and shorter latent period than l
- carcinogen call (Species: Rat, Strain/Sex: Fischer 344/Female, Route: Direct application to ovary, Dose: 100 ug in sesame oil, once, study duration 5 months): inactive; negative
- carcinogen call (Species: SHREW, Strain/Sex: JAPANESE/FEMALE, Route: INTRAPERITONEAL, Dose: 0, 1.25, 2.5 MG 1/WK FOR 4 WK (STUDY DURATION: 50 WK), Dose: 0, 1.25, 2.5 MG 1/WK FOR 4 WK (STUDY DURATION: 50 WK), Tumor Site: Type of Lesion: HEMATOPOIETIC SYSTEM: LEUKEMIA): active; positive
- carcinogen call (Species: SHREW, Strain/Sex: JAPANESE/FEMALE, Route: INTRAPERITONEAL, Dose: 0, 1.25, 2.5 MG 1/WK FOR 8 WK (STUDY DURATION: 50 WK), Dose: 0, 1.25, 2.5 MG 1/WK FOR 8 WK (STUDY DURATION: 50 WK), Tumor Site: Type of Lesion: HEMATOPOIETIC SYSTEM: LEUKEMIA): active; positive
- carcinogen call (Species: SHREW, Strain/Sex: JAPANESE/FEMALE, Route: SUBCUTANEOUS, Dose: 0, 1 MG INTO RIGHT INGUINAL SUBCUTANEOUS TISSUE OVER THE MAMMARY GLAND ONCE (STUDY DURATION: 50 WK), Tumor Site: Type of Lesion: INJECTION SITE: SARCOMA): active; positive
